Source: US9920032B2, “Heterocyclic compounds useful as pim kinase inhibitors” (Incyte Corporation, priority 2015, dated 2018)

Key:
Type in all cases: biochemical
Pim-1 = Pim-1 (Homo sapiens (Human), UniProt P11309); test: Pim-1 kinase assay; conditions: 1 mM ATP; read-out: PIM1 IC50
How it was run: (§1)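 Biotin-BAD peptide (0.05 μM) phosphorylated with 1 mM ATP by 2.5 pM Pim-1 or 1.25 pM Pim-3 in Tris pH 7.5/MgCl2/DTT buffer, 1 h at 25° C. EDTA stop; phospho-BAD (Ser112) antibody with streptavidin donor and Protein-A acceptor beads, 1 h dark at room temperature before AlphaScreen-type bead read.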

Pim-2 = Pim-2 (Homo sapiens (Human), UniProt Q9P1W9); test: Pim-2 kinase assay; conditions: 1 mM ATP; read-out: PIM2 IC50
How it was run: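 TR-FRET assay with 1 nM enzyme, 0.05 μM fluorescein-CREBtide and 1 mM ATP in Tris pH 7.5 buffer with MgCl2, DTT, BSA and Tween-20, run 2 h at 25° C. Stopped with EDTA and Tb-labelled anti-CREB pSer133 antibody, then read after 30 min at room temperature.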

Pim-3 = Pim-3 (Homo sapiens (Human), UniProt Q86V86); test: Pim-3 kinase assay; conditions: 1 mM ATP; read-out: PIM3 IC50
How it was run: as §1

Pim-2, sequence (Q9P1W9 whole entry): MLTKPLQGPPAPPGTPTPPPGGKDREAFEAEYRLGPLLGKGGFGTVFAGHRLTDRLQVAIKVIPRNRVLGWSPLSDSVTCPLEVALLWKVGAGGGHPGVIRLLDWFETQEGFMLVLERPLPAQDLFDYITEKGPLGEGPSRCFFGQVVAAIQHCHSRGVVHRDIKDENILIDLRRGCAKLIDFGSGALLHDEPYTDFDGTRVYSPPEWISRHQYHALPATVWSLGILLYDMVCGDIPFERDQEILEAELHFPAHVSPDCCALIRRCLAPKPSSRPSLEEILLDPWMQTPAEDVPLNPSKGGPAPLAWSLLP
Pim-1, sequence (P11309 whole entry): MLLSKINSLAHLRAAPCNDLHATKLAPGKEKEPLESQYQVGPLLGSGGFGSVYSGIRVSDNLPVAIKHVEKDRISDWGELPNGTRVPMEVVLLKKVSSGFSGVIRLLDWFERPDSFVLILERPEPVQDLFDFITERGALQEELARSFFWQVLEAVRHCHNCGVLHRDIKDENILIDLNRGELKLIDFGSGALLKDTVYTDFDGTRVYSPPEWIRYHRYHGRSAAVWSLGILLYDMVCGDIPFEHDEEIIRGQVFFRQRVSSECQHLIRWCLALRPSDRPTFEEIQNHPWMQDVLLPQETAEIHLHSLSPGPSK

Row | SMILES | IC50 (Pim-1) | IC50 (Pim-2) | IC50 (Pim-3)
1 | C[C@@H]1C[C@H](N)C[C@H](c2ccncc2NC(=O)c2ccc(F)c3cc(N4CCN(C5CC5)C(=O)C4)cnc23)C1 [Example 114, N-(4-((1R,3S,5S)-3-Amino-5-methylcyclohexyl)pyridin-3-yl)-3-(4-cyclopropyl-3-oxopiperazin-1-yl)-5-fluoroquinoline-8-carboxamide] | ≤ 10 nM | ≤ 100 nM | ≤ 10 nM
2 | CC(C)N1CCN(c2cnc3c(C(=O)Nc4cnccc4[C@@H]4C[C@H](C)C[C@H](N)C4)ccc(F)c3c2)CC1=O [Example 115, N-(4-((1R,3S,5S)-3-Amino-5-methylcyclohexyl)pyridin-3-yl)-5-fluoro-3-(4-isopropyl-3-oxopiperazin-1-yl)quinoline-8-carboxamide] | ≤ 10 nM | ≤ 100 nM | ≤ 10 nM
3 | C[C@@H]1C[C@H](N)C[C@H](c2ccncc2NC(=O)c2ccc(F)c3cc(N4CC(C)(C)C4)cnc23)C1 [Example 116, N-(4-((1R,3S,5S)-3-Amino-5-methylcyclohexyl)pyridin-3-yl)-3-(3,3-dimethylazetidin-1-yl)-5-fluoroquinoline-8-carboxamide] | ≤ 10 nM | ≤ 100 nM | ≤ 10 nM
4 | CC(C)CN1CCN(c2cnc3c(C(=O)Nc4cnccc4[C@@H]4C[C@H](C)C[C@H](N)C4)ccc(F)c3c2)CC1=O [Example 117, N-(4-((1R,3S,5S)-3-Amino-5-methylcyclohexyl)pyridin-3-yl)-5-fluoro-3-(4-isobutyl-3-oxopiperazin-1-yl)quinoline-8-carboxamide] | ≤ 10 nM | ≤ 100 nM | ≤ 10 nM
5 | COC1(C)CN(c2cnc3c(C(=O)Nc4cnccc4[C@@H]4C[C@H](C)C[C@H](N)C4)ccc(F)c3c2)C1 [Example 118, N-(4-((1R,3S,5S)-3-Amino-5-methylcyclohexyl)pyridin-3-yl)-5-fluoro-3-(3-methoxy-3-methylazetidin-1-yl)quinoline-8-carboxamide] | ≤ 10 nM | ≤ 100 nM | ≤ 10 nM
6 | C[C@@H]1C[C@H](N)C[C@H](c2ccncc2NC(=O)c2ccc(F)c3cc(N4CCc5nn(C)cc5C4)cnc23)C1 [Example 119, N-(4-((1R,3S,5S)-3-Amino-5-methylcyclohexyl)pyridin-3-yl)-5-fluoro-3-(2-methyl-6,7-dihydro-2H-pyrazolo[4,3-c]pyridin-5(4H)-yl)quinoline-8-carboxamide] | ≤ 10 nM | ≤ 100 nM | ≤ 10 nM
7 | C[C@@H]1C[C@H](N)C[C@H](c2ccncc2NC(=O)c2ccc(F)c3cc(N4CCOc5cccc(F)c54)cnc23)C1 [Example 120, N-(4-((1R,3S,5S)-3-Amino-5-methylcyclohexyl)pyridin-3-yl)-5-fluoro-3-(5-fluoro-2H-benzo[b][1,4]oxazin-4(3H)-yl)quinoline-8-carboxamide] | ≤ 10 nM | ≤ 100 nM | ≤ 10 nM
8 | C[C@@H]1C[C@H](N)C[C@H](c2ccncc2NC(=O)c2ccc(F)c3cc(N4CC5(CCOCC5)C4)cnc23)C1 [Example 121, N-(4-((1R,3S,5S)-3-Amino-5-methylcyclohexyl)pyridin-3-yl)-5-fluoro-3-(7-oxa-2-azaspiro[3.5]nonan-2-yl)quinoline-8-carboxamide] | ≤ 10 nM | ≤ 100 nM | ≤ 10 nM
9 | CCOC1CN(c2cnc3c(C(=O)Nc4cnccc4[C@@H]4C[C@H](C)C[C@H](N)C4)ccc(F)c3c2)C1 [Example 122, N-(4-((1R,3S,5S)-3-Amino-5-methylcyclohexyl)pyridin-3-yl)-3-(3-ethoxyazetidin-1-yl)-5-fluoroquinoline-8-carboxamide] | ≤ 10 nM | ≤ 100 nM | ≤ 10 nM
10 | C[C@@H]1C[C@H](N)C[C@H](c2ccncc2NC(=O)c2ccc(F)c3cc(N4CC[C@H]4CO)cnc23)C1 [Example 123, N-(4-((1R,3S,5S)-3-Amino-5-methylcyclohexyl)pyridin-3-yl)-5-fluoro-3-((S)-2-(hydroxymethyl)azetidin-1-yl)quinoline-8-carboxamide] | ≤ 10 nM | ≤ 100 nM | ≤ 10 nM
11 | C[C@@H]1C[C@H](N)C[C@H](c2ccncc2NC(=O)c2ccc(F)c3cc(N4CCCN(S(C)(=O)=O)CC4)cnc23)C1 [Example 124, N-(4-((1R,3S,5S)-3-Amino-5-methylcyclohexyl)pyridin-3-yl)-5-fluoro-3-(4-(methylsulfonyl)-1,4-diazepan-1-yl)quinoline-8-carboxamide] | ≤ 10 nM | ≤ 100 nM | ≤ 10 nM
12 | C[C@@H]1C[C@H](N)C[C@H](c2ccncc2NC(=O)c2ccc(F)c3cc(Nc4ccccc4F)cnc23)C1 [Example 125, N-(4-((1R,3S,5S)-3-Amino-5-methylcyclohexyl)pyridin-3-yl)-5-fluoro-3-(2-fluorophenylamino)quinoline-8-carboxamide] | ≤ 10 nM | ≤ 100 nM | ≤ 10 nM
13 | COC(=O)N1CCCN(c2cnc3c(C(=O)Nc4cnccc4[C@@H]4C[C@H](C)C[C@H](N)C4)ccc(F)c3c2)CC1 [Example 126, Methyl 4-(8-(4-((1R,3S,5S)-3-amino-5-methylcyclohexyl)pyridin-3-ylcarbamoyl)-5-fluoroquinolin-3-yl)-1,4-diazepane-1-carboxylate] | ≤ 10 nM | ≤ 100 nM | ≤ 10 nM
14 | C[C@@H]1C[C@H](N)C[C@H](c2ccncc2NC(=O)c2ccc(F)c3cc(N4CCc5cnn(C)c5C4)cnc23)C1 [Example 127, N-(4-((1R,3S,5S)-3-Amino-5-methylcyclohexyl)pyridin-3-yl)-5-fluoro-3-(1-methyl-4,5-dihydro-1H-pyrazolo[3,4-c]pyridin-6(7H)-yl)quinoline-8-carboxamide] | ≤ 10 nM | ≤ 100 nM | ≤ 10 nM
15 | C[C@@H]1C[C@H](N)C[C@H](c2ccncc2NC(=O)c2ccc(F)c3cc(N4CCCN(C)S4(=O)=O)cnc23)C1 [Example 128, N-(4-((1R,3S,5S)-3-Amino-5-methylcyclohexyl)pyridin-3-yl)-5-fluoro-3-(6-methyl-1,1-dioxido-1,2,6-thiadiazinan-2-yl)quinoline-8-carboxamide] | ≤ 10 nM | ≤ 100 nM | ≤ 10 nM
16 | C[C@@H]1C[C@H](N)C[C@H](c2ccncc2NC(=O)c2ccc(F)c3cc(Nc4ccccc4C#N)cnc23)C1 [Example 129, N-(4-((1R,3S,5S)-3-Amino-5-methylcyclohexyl)pyridin-3-yl)-3-(2-cyanophenylamino)-5-fluoroquinoline-8-carboxamide] | ≤ 10 nM | 100 to 1000 nM | ≤ 10 nM
17 | C[C@@H]1C[C@H](N)C[C@H](c2ccncc2NC(=O)c2ccc(F)c3cc(N4CCCc5ccccc54)cnc23)C1 [Example 130, N-(4-((1R,3S,5S)-3-Amino-5-methylcyclohexyl)pyridin-3-yl)-5′-fluoro-3,4-dihydro-2H-1,3′-biquinoline-8′-carboxamide] | ≤ 10 nM | 100 to 1000 nM | ≤ 10 nM
18 | COC1CCN(c2cnc3c(C(=O)Nc4cnccc4[C@@H]4C[C@H](C)C[C@H](N)C4)ccc(F)c3c2)CC1 [Example 131, N-(4-((1R,3S,5S)-3-Amino-5-methylcyclohexyl)pyridin-3-yl)-5-fluoro-3-(4-methoxypiperidin-1-yl)quinoline-8-carboxamide] | ≤ 10 nM | 100 to 1000 nM | ≤ 10 nM
19 | C[C@@H]1C[C@H](N)C[C@H](c2ccncc2NC(=O)c2ccc(F)c3cc(N4CCOC(CO)C4)cnc23)C1 (stereo partly drawn) [Example 132, N-(4-((1R,3S,5S)-3-Amino-5-methylcyclohexyl)pyridin-3-yl)-5-fluoro-3-(2-(hydroxymethyl)morpholino)quinoline-8-carboxamide] | ≤ 10 nM | 100 to 1000 nM | ≤ 10 nM
20 | COCCN1CCN(c2cnc3c(C(=O)Nc4cnccc4[C@@H]4C[C@H](C)C[C@H](N)C4)ccc(F)c3c2)CC1=O [Example 133, N-(4-((1R,3S,5S)-3-Amino-5-methylcyclohexyl)pyridin-3-yl)-5-fluoro-3-(4-(2-methoxyethyl)-3-oxopiperazin-1-yl)quinoline-8-carboxamide] | ≤ 10 nM | 100 to 1000 nM | ≤ 10 nM
21 | C[C@@H]1C[C@H](N)C[C@H](c2ccncc2NC(=O)c2ccc(F)c3cc(N4CCn5cnnc5C4)cnc23)C1 [Example 134, N-(4-((1R,3S,5S)-3-Amino-5-methylcyclohexyl)pyridin-3-yl)-3-(5,6-dihydro-[1,2,4]triazolo[4,3-a]pyrazin-7(8H)-yl)-5-fluoroquinoline-8-carboxamide] | ≤ 10 nM | 100 to 1000 nM | ≤ 10 nM
22 | C[C@@H]1C[C@H](N)C[C@H](c2ccncc2NC(=O)c2ccc(F)c3cc(N4CCCN(C)C(=O)C4)cnc23)C1 [Example 135, N-(4-((1R,3S,5S)-3-Amino-5-methylcyclohexyl)pyridin-3-yl)-5-fluoro-3-(4-methyl-3-oxo-1,4-diazepan-1-yl)quinoline-8-carboxamide] | ≤ 10 nM | 100 to 1000 nM | ≤ 10 nM
23 | C[C@@H]1C[C@H](N)C[C@H](c2ccncc2NC(=O)c2ccc(F)c3cc(N4C5CCC4CC5)cnc23)C1 [Example 136, N-(4-((1R,3S,5S)-3-Amino-5-methylcyclohexyl)pyridin-3-yl)-3-(7-azabicyclo[2.2.1]heptan-7-yl)-5-fluoroquinoline-8-carboxamide] | ≤ 10 nM | ≤ 100 nM | ≤ 10 nM
